Measurements taken from patent US9597323B2, “Aminoester derivatives” (CHIESI FARMACEUTICI S.p.A., priority 2015, dated 2017).
Like-named read-outs stand apart in the source and are kept apart here. One block for each compound: values may come before it.

Columns and labels:
Human M3 receptor = molecular target: T1, Human M3 receptor (Homo sapiens, UniProt P20309); experiment: M3 Receptor radioligand binding assay; conditions: for Ki: calculated from IC50 by Cheng and Prusoff equation
T1 construct: purchased Perkin Elmer
Method: M3 Receptor Radioligand Binding Assay:
The assay is carried out in 96-well polypropylene plates in a volume of 250 μl. […] The final assay concentration of DMSO is 0.5% (v/v). The plates are sealed and incubated for 2 h at room temperature on an orbital shaker (slow speed). Membranes are harvested onto 96-well unifilter GF/C filter plates pre-treated with 0.5% polyethyleneimine (v/v), using a filter manifold, washed four times with 200 μl of assay buffer. The plates are dried before addition of 50 μl of microscint-0, sealed then read in a Trilux Microbeta scintillation counter. IC50 values are determined from competition curves using a non-linear curve fitting program. Ki values are calculated from IC50 values by the Cheng and Prusoff equation.

Human recombinant PDE4B2 = Human recombinant PDE4B2 (Homo sapiens, UniProt Q07343); experiment: PDE4B2 HTRF assay; assay type: biochemical
Method: PDE4B2 activity is detected using the LANCE Ultra cAMP homogeneous time resolved fluorescence resonance energy transfer (TR-FRET) assay from Perkin Elmer. The assay is based on the competition between the europium (Eu) chelate-labeled cAMP tracer and sample cAMP for binding sites on cAMP-specific monoclonal antibodies (mAb) labelled with the ULight™ dye. The assay is carried out in 384-well low volume plates in a volume of 10 μl. Human recombinant PDE4B2 (80 pM) is incubated for 2 h with 3 nM cAMP in buffer containing 1×HBSS, 5 mM HEPES, 3 mM MgCl2, 0.1% BSA, pH 7.4 with or without test compounds. The enzymatic reactions are efficiently stopped by the addition of 500 μM IBMX present in the combined Stop/Detection buffer containing europium (Eu) chelate-labeled cAMP tracer and cAMP-specific monoclonal antibodies (mAb) labelled with the ULight™ dye. […] IC50 values are determined from competition curves using a non-linear curve fitting program.

[1] = test system: Cch-evoked bronchoconstriction; experiment: Bronchospasm, percentage of inhibition (Cch-induced bronchoconstriction in rats); assay type: in vivo, rat; conditions: for inhibition at 16 h: 16 h after intratracheal administration of the sub-maximal inhibition dose; for sub-maximal inhibition Dose [inhibition at 1 h]: dose producing about 80% inhibition of the bronchospasm after 1 h, intratracheal
Method: Protocol of Bronchospasm-Percentage of Inhibition Animals Male CD Sprague Dawley rats (220-250 g) were purchased from Charles River Laboratories Italy (Calco, Lecco). Prior to use animals were acclimated for at least 5 days to the local vivarium conditions (room temperature: 20-24° C.; relative humidity: 40-70%), having free access to standard rat chow and softened tap water. All the procedures were performed in animal operating rooms according to ethical guidelines for the conduct of animal research (D. L.vo 116/92). […] Animals were anaesthetized with Urethane (1.2 g/kg, i.p.) and a laryngoscope was moved forward into the mouth to visualize the trachea and guide the insertion of the tip of a custom made small diameter cannula directly into the trachea and located 1-2 mm above the bifurcation. […] The target concentration was obtained by dilution of the DMSO stock in saline. Test compounds were instilled locally into the trachea in a volume of 125 μl. Experimental Procedure In order to assess the residual inhibitory activity of test compounds at 1 to 16 hours after their administration, rats were surgically prepared. In order to assess the Cch-induced bronchoconstriction in rats, the infusion of physiological solution was stopped and the bronchospastic agent injected into the jugular vein using the same cannula. Soon after washing the cannula with saline to ensure the complete administration of the bronchoconstrictor agent, the saline infusion was started again. Body temperature was kept constant at 37° C. by a heated blanket. The trachea was cannulated and the lungs were ventilated artificially with a small animal constant volume ventilator (rodent ventilator mod. 7025, Ugo Basile, Comerio, Varese, Italy) at a frequency of 80 strokes/min and at a tidal volume of 2.5 ml/kg. To avoid spontaneous breathing, the animals were injected intravenously (i.v.) with pancuronium bromide (2 mg/kg). Bronchoconstriction was induced by the i.v. injection of Cch 50 μg/kg. In control experiments, repeated injections of this dose produced reproducible short-lasting (1-2 min duration) bronchospasms. Bronchoconstriction, quantified as a reduction of tidal volume, was evaluated according to the method described by Konzett & Roessler in Konzett H. and Roessler R. (1940). Versuchanornungzu untersuchungen […]. Arch. Exp. Path. Pharmak.; 195:71-74, which is incorporated herein by reference in its entirety. Systemic blood pressure and changes in airway resistance were monitored with a digital pressure transducer connected to a bridge amplifier (PowerLab; Ugo Basile, Italy) and recorded using Chart 5 software (Ugo Basile, Italy). […] The effect of test compounds was expressed as % inhibition of Cch-evoked bronchoconstriction in time-matched, vehicle-treated, animals (controls).

COPD patients = conditions: cited from earlier work
[2] = patients with severe disease, frequent exacerbations and mucus hypersecretion

T1 sequence (P20309 whole entry): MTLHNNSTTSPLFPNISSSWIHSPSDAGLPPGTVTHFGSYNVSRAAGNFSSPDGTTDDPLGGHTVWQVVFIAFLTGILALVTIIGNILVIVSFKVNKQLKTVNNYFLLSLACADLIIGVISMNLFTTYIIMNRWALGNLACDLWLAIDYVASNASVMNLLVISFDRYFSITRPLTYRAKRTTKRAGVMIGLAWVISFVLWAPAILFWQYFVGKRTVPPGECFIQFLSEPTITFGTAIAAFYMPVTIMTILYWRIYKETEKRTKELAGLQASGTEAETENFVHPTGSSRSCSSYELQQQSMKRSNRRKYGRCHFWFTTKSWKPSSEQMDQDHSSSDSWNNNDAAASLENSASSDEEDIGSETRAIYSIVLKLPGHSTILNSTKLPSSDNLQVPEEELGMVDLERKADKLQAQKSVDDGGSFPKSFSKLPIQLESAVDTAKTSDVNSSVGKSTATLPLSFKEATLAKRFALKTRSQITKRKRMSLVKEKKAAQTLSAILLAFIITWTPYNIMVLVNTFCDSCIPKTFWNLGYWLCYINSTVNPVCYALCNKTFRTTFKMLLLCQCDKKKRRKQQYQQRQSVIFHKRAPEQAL
Sequence of Human recombinant PDE4B2 (Q07343 1-564 isoform Q07343-2): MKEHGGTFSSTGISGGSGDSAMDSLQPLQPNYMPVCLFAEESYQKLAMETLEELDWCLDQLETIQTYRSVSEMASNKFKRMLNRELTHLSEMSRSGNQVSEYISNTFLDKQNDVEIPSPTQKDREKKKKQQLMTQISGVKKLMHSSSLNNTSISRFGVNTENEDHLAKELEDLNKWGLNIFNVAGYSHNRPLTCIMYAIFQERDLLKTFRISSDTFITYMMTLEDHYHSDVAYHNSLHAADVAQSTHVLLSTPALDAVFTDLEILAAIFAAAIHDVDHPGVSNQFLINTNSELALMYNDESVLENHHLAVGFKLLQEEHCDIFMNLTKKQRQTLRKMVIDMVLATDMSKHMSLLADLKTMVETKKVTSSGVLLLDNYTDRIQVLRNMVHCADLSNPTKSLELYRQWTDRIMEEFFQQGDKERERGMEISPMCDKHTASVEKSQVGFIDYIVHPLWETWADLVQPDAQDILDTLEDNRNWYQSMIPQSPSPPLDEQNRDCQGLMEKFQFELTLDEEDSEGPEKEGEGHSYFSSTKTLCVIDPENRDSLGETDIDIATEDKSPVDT

Compound: COc1ccc([C@H](Cc2c(Cl)c[n+]([O-])cc2Cl)OC(=O)c2cccc(CNC(C(=O)OCC3CCN(C)CC3)c3ccccc3)c2)cc1OC (mixture of isomers) [Example 1, [(1S)-2-(3,5-dichloro-1-oxido-pyridin-1-ium-4-yl)-1-(3,4-dimethoxyphenyl)ethyl] 3-[[[2-[(1-methyl-4-piperidyl)methoxy]-2-oxo-1-phenyl-ethyl]amino]methyl]benzoate]
IC50 (Human M3 receptor; read-out: M3 IC50 activity): 1 to 10 nM
IC50 (Human recombinant PDE4B2): < 1 nM

Compound: COc1ccc([C@H](Cc2c(Cl)c[n+]([O-])cc2Cl)OC(=O)c2ccc(CNC(C(=O)OCC3CCN(C)CC3)c3ccccc3)cc2)cc1OC (single isomer, unassigned) [Example 2]
IC50 (Human M3 receptor; read-out: M3 IC50 activity): 1 to 10 nM
IC50 (Human recombinant PDE4B2): 1 to 10 nM

Compound: COc1ccc([C@H](Cc2c(Cl)c[n+]([O-])cc2Cl)OC(=O)c2cccc(CNC(C(=O)OCC3CCN(C)CC3)c3ccccc3)c2)cc1OC (stereo partly drawn) [Example 5, [(1S)-2-(3,5-dichloro-1-oxido-pyridin-1-ium-4-yl)-1-(3,4-dimethoxyphenyl)ethyl] 3-[[[2-[(1-methyl-4-piperidyl)-methoxy]-2-oxo-1-phenyl-ethyl]amino]methyl]benzoate]
IC50 (Human M3 receptor; read-out: M3 IC50 activity): 1 to 10 nM
IC50 (Human recombinant PDE4B2): 1 to 10 nM

Compound: O=C(Nc1c(Cl)cncc1Cl)c1ccc(OC(F)F)c(OCC2CC2)c1 [roflumilast]
reduction of numbers of neutrophils in sputum (COPD patients; COPD patients, oral, over four weeks): 36%
improvement of FEV 1 (COPD patients; [2]): approximately 50 mL
reduction of exacerbation (COPD patients; [2]): about 15%

Further lines, with some results ahead:

Ki (Human M3 receptor): 0.09 nM
IC50 (Human M3 receptor; read-out: M3 IC50): 0.17 nM
Compound: COc1ccc([C@H](Cc2c(Cl)c[n+]([O-])cc2Cl)OC(=O)c2ccc(CNC(C(=O)OC3CCN(C)CC3)c3ccccc3)cc2)cc1OC (single isomer, unassigned) [Example 7C, reference compound]
inhibition at 16 h [1]: <10%
sub-maximal inhibition Dose [inhibition at 1 h] [1]: 3 nmol/kg

Ki (Human M3 receptor): 0.45 nM
IC50 (Human M3 receptor; read-out: M3 IC50): 0.9 nM
IC50 (Human M3 receptor; read-out: M3 IC50 activity): < 1 nM
IC50 (Human recombinant PDE4B2): 1 to 10 nM
Compound: COc1ccc([C@H](Cc2c(Cl)c[n+]([O-])cc2Cl)OC(=O)c2ccc(CNC(C(=O)OCC3CCN(C)CC3)c3ccccc3)cc2)cc1OC (single isomer, unassigned) [Example 7]
inhibition at 16 h [1]: >90%
sub-maximal inhibition Dose [inhibition at 1 h] [1]: 30 nmol/kg

IC50 (Human M3 receptor; read-out: M3 IC50 activity): 1 to 10 nM
IC50 (Human recombinant PDE4B2): 1 to 10 nM
Compound: COc1ccc([C@H](Cc2c(Cl)c[n+]([O-])cc2Cl)OC(=O)c2ccc(CNC(C(=O)OCC3CCN(C)CC3)c3cccc(O)c3)cc2)cc1OC (stereo partly drawn) [Example 11, [(1S)-2-(3,5-dichloro-1-oxido-pyridin-1-ium-4-yl)-1-(3,4-dimethoxyphenyl)ethyl] 4-[[[1-(3-hydroxyphenyl)-2-[(1-methyl-4-piperidyl)-methoxy]-2-oxo-ethyl]amino]methyl]benzoate]
